Measurements reported in patent publication US5612341A, “Brominated hexahydroxybiphenyl derivatives” (Biotech Research Laboratories, priority 1995, dated 1997).
Converted amounts (≈) assume the structure as drawn. Counter-ions that a name gives are not always drawn. Like-named read-outs stand apart in the source and are kept apart here.

How the values were obtained:
Assay type in all cases: cell-based
[1] = test system: H9 T cell line; experiment: Toxicity to uninfected H9 cells (cell count)
Experimental: (§1) The H9 T cell line was maintained in continuous culture with complete medium (RPMI and 10% fetal calf serum) at 5% CO2 and 37° C. and was used in experiments only when in log phase of growth. The cells were incubated with HIV-1 (IIIB isolate, TCID50 10^4 IU/mL, at a multiplicity of infection of 0.1-0.01 IU/cell) for 1 hour at 37° C. and 5% CO2. The cells then were washed thoroughly to remove unabsorbed virions and resuspended at 4×10^5 cells/mL in complete medium. Aliquots (1 mL) were placed in wells of 24-well culture plates containing an equal volume of test compound (diluted in the culture medium). After a four day incubation at 37° C., cell density of uninfected cultures was determined by counting cells in a Coulter counter to assess toxicity of the test compound. A p24 antigen ELISA assay was used to determine the level of virus released in the medium of the HIV-infected cultures. The p24 antigen assay uses an HIV-1 anti-p24 specific monoclonal antibody as the capture antibody coated on 96 well plates. Following a sample incubation period, rabbit serum containing antibodies for HIV-1 p24 is used to tag any p24 "captured" onto the microtiter well surface. […] The cut-off for the p24 ELISA assay is 12.5 pg/mL. P24 in the culture medium was quantitated against a standard curve containing known amounts of p24. The effective (EC50) and inhibitory concentrations (for anti-HIV activity and cytotoxicity, respectively) were determined.

[2] = test system: HIV-1 (IIIB isolate); experiment: microbe, parasite or virus in culture; conditions: for EC50: acutely infected H9 lymphocytes; for Therapeutic Index: 5760 min; for anti-HIV activity: result in words
Experimental: as §1

[3] = test system: chronically HIV-1 infected promonocytic cell line, U1; experiment: Virus expression in chronically HIV-1 infected promonocytic U1 cells (p24 ELISA)
Experimental: Therefore, compounds 4 and 5 were separately added for 72 hours to the chronically HIV-1 infected T cell line, ACH-2, and to the chronically HIV-1 infected promonocytic cell line, U1.
HIV-1 chronically infected T cell line, ACH-2, ^15 and HIV-1 chronically infected promonocytic cell line, U1 ^16 were continuously maintained in RPMI1640 with 10% fetal calf serum (FCS). For experiments, the cell lines were only used in log-phase of growth. Cells (1×10^6 cells/well) and either various concentrations of 4,5, AZT or media alone were added to 24-well plates in the presence or absence of PMA (10^-8 M). After 72 hours at 37° C. and 5% CO2, an aliquot of the cell-free supernatants was collected and analyzed for p24 antigen by ELISA.

[4] = Homo sapiens, H9, Table I, cytotoxicity, uninfected H9 cells, read-out: IC50
[5] = Human immunodeficiency virus 1, IIIB, Lymphocyte, Table I, read-out: EC50
[6] = T-cell, Table IA, concentration that causes a 50% reduction in total cell number, read-out: IC50
[7] = Human immunodeficiency virus 1, IIIB, Lymphocyte, Table IA, read-out: EC50
[8] = Table I, cytotoxicity, uninfected H9 cells

EC50 [2, 5] [µg/mL]	SMILES	IC50 [1, 4] [µg/mL]	Therapeutic Index ([2]; Table I, IC50/EC50)	anti-HIV activity [2]	IC50 [1, 6] [µg/mL]	further results
> 100	COC(=O)c1cc(OCc2ccccc2)c(OCc2ccccc2)c(OC)c1-c1c(OC)c(OCc2ccccc2)c(OCc2ccccc2)c(Br)c1C(=O)OC [Compound 16, 2,2'-Dimethoxycarbonyl-3-bromo-4,4',5,5'-tetrakis(benxyloxy)-6,6'-dimethoxybiphenyl]	> 100	1	no anti-HIV activity		
60 (≈ 104 µM)	CCOC(=O)c1c(Br)c(OC)c2c(c1-c1c3c(c(OC)c(Br)c1C(=O)O)OCO3)OCO2 [Compound 9, 3,3'-Dibromo-4,4'-dimethoxy-5,6,5'6'-bimethylenedioxy-2-ethoxycarbonyl-2'-carboxy biphenyl]	> 100	> 1.7	decrease in the anti-HIV activity		
> 100	COc1c(Br)c(C(=O)O)c(-c2c3c(c(OC)c(Br)c2C(=O)NCCN2CCCC2)OCO3)c2c1OCO2 [Compound 13, 3,3'-Dibromo-4,4'-dimethoxy-5,6,5'6'-bimethylenedioxy-2-carboxy-2'-(β-N-pyrrolidinyl)ethylcarbonyl biphenyl hydrobromide]	> 100	1	decrease in the anti-HIV activity		
> 100	COC(=O)c1c(Br)c(OCc2ccccc2)c(OCc2ccccc2)c(OC)c1-c1c(OC)c(OCc2ccccc2)c(OCc2ccccc2)c(Br)c1C(=O)OC [Compound 17, 2,2'-Dimethoxycarbonyl-3,3'-dibromo-4,4'5,5'-tetrakis(benzyloxy)-6,6'-dimethoxy biphenyl]	> 100	1	no anti-HIV activity		
> 100	COc1c(Br)c(C(=O)O)c(-c2c3c(c(OC)c(Br)c2C(=O)OCC[N+](C)(C)C)OCO3)c2c1OCO2 [Compound 11, 3,3'-Dibromo-4,4'-dimethoxy-5,6,5'6'-bimethylenedioxy-2-carboxy-2'-(β-N,N,N-trimethylamino)ethoxycarbonyl biphenyl chloride]	> 100	1	decrease in the anti-HIV activity		

More lines, now with the values behind:

SMILES	EC50 [2, 5] [µg/mL]	IC50 [1, 4] [µg/mL]	Therapeutic Index ([2]; Table I, IC50/EC50)	anti-HIV activity [2]	IC50 [1, 6] [µg/mL]	further results
COc1c(Br)c(C(=O)O)c(-c2c3c(c(OC)c(Br)c2C(=O)NCCN2CCNCC2)OCO3)c2c1OCO2 [Compound 12, 3,3'-Dibromo-4,4'-dimethoxy-5,6,5'6'-bimethylenedioxy-2-carboxy-2'-(β-N-piperazine)ethylcarbonyl biphenyl]	30 (≈ 45.5 µM)	> 100	> 3.3	decrease in the anti-HIV activity		
CCCCCCOC(=O)c1c(Br)c(OC)c2c(c1-c1c3c(c(OC)c(Br)c1C(=O)OCCCCCC)OCO3)OCO2 [Compound 15, 3,3'-Dibromo-4,4'-dimethoxy-5,6,5'6'-bimethylenedioxy-2,2'-dihexanoxycarbonyl biphenyl]	2 (≈ 2.79 µM)	> 100	> 50			
COC(=O)c1c(Br)c2c(c(OC)c1-c1c3c(c(OC)c(Br)c1C(=O)OC)OCO3)OCO2 [Compound 119, 3,3'-Dibromo-4,6'-dimethoxy-5,6,4'5'-bimethylenedioxy-2,2'-dimethoxycarbonyl biphenyl]					> 100	EC50 [2, 7]: 2.1 µg/mL (≈ 3.64 µM); Therapeutic Index ([2]; Table IA, ratio IC50/EC50): > 48
Cc1cn([C@H]2C[C@H](N=[N+]=[N-])[C@@H](CO)O2)c(=O)[nH]c1=O [AZT, azidothymidine, reference compound]						p24 ([3]; +Media, 0.1 μg/mL): 18 pg/mL; p24 ([3]; +Media, 1 μg/mL): 12 pg/mL; p24 ([3]; +Media, 10 μg/mL): 13 pg/mL; p24 ([3]; +Media, 100 μg/mL): 22 pg/mL; p24 ([3]; +PMA, 0.1 μg/mL): 8,070 pg/mL; p24 ([3]; +PMA, 1 μg/mL): 8,218 pg/mL; p24 ([3]; +PMA, 10 μg/mL): 9,299 pg/mL; p24 ([3]; +PMA, 100 μg/mL): 9,338 pg/mL
COC(=O)c1c(-c2cc(OC)c3c(c2C(=O)OC)OCO3)cc(OC)c2c1OCO2 [Compound 116, 5,5'-Dimethoxy-3,4,3 '4'-bismethylenedioxy-2,2'-dimethoxycarbonyl biphenyl]					> 100	EC50 [2, 7]: 70 µg/mL (≈ 167 µM); Therapeutic Index ([2]; Table IA, ratio IC50/EC50): > 1.4
COC(=O)c1cc2c(c(OC)c1-c1c(C(=O)OC)cc3c(c1OC)OCO3)OCO2 [Compound 114, 6,6'-dimethoxy-4,5,4'5'-bimethylenedioxy-2,2'-dimethoxycarbonyl biphenyl]					> 100	EC50 [2, 7]: 65 µg/mL (≈ 155 µM); Therapeutic Index ([2]; Table IA, ratio IC50/EC50): > 1.2
COC(=O)c1c(Br)c2c(c(OC)c1-c1c(OC)c3c(c(Br)c1C(=O)OC)OCO3)OCO2 [Compound 118, 3,3'-Dibromo-6,6'-dimethoxy-4,5,4,5'-bimethylenedioxy-2,2'-dimethoxycarbonyl biphenyl]					> 100	EC50 [2, 7]: 90 µg/mL (≈ 156 µM); Therapeutic Index ([2]; Table IA, ratio IC50/EC50): > 1.1
COc1c(Br)c(C(=O)O)c(-c2c3c(c(OC)c(Br)c2C(=O)O)OCO3)c2c1OCO2 [Compound 14, 3,3'-Dibromo-4,4'-dimethoxy-5,6,5',6'-bimethylenedioxy-2,2'-dicarboxy biphenyl di-1-(2-hydroxyethyl)pyrrolidinium salts]						EC50 ([2]; Table I): 17 µg/mL
COc1c(OCc2ccccc2)c(OCc2ccccc2)c(Br)c(CO)c1-c1c(CO)c(Br)c(OCc2ccccc2)c(OCc2ccccc2)c1OC [Compound 19, 2,2'-Dihydroxymethyl-3,3'-dibromo-4,4'5,5'-tetrakis(benzyloxy)-6,6'-dimethoxy diphenyl]	> 100	> 100	1	no anti-HIV activity		
COC(=O)c1cc2c(c(OC)c1-c1c(C(=O)OC)cc(OC)c3c1OCO3)OCO2 [Compound 115, 4,6'-dimethoxy-5,6,4'5'-binethylenedioxy,2,2'-dimethoxycarbonyl biphenyl]					> 100	EC50 [2, 7]: 7.5 µg/mL (≈ 17.9 µM); Therapeutic Index ([2]; Table IA, ratio IC50/EC50): > 13
CCOC(=O)c1c(Br)c(OC)c2c(c1-c1c3c(c(OC)c(Br)c1C(=O)O)OCO3)OCO2 [Compound 10, 3,3'-Dibromo-4,4'-dimethoxy-5,6,5'6'-bimethylenedioxy-2-ethoxycarbonyl-2'-carboxy biphenyl monosodium salt]						IC50 [1, 8]: > 100 µg/mL
COc1c(Br)c(C(=O)O)c(-c2c3c(c(OC)c(Br)c2C(=O)O)OCO3)c2c1OCO2 [Compound 6, 3,3'-Dibromo-4,4'-dimethoxy-5,6,5'6'-bimethylenedioxy-2,2'-dicarboxy biphenyl]			1	decrease in the anti-HIV activity		IC50 [1, 8]: > 100 µg/mL; EC50 ([2]; Table I): > 100 µg/mL
COc1c(Br)c(C(=O)O)c(-c2c3c(c(OC)c(Br)c2C(=O)O)OCO3)c2c1OCO2 [Compound 7, 3,3'-Dibromo-4,4'-dimethoxy-5,6,5'6'-bimethylenedioxy-2,2'-dicarboxy biphenyl disodium salt]				decrease in the anti-HIV activity		IC50 ([1]; Table I, cytotoxicity, uninfected H9 cells, disodium salt): > 100 µg/mL; Therapeutic Index ([2]; Table I, IC50/EC50, disodium salt): 1; EC50 ([2]; Table I, disodium salt): > 100 µg/mL
COc1c2c(c3c(c1Br)c(=O)oc(=O)c1c(Br)c(OC)c4c(c13)OCO4)OCO2 [Compound 8, 3,3'-Dibromo-4,4'-dimethoxy-5,6,5'6'-bimethylenedioxy biphenyl 2,2'-dicarboxylic anhydride]		> 100				
COC(=O)c1cc(-c2cc(C(=O)OC)c3c(c2OC)OCO3)c(OC)c2c1OCO2 [Compound 117, 2,2'-Dimethoxy-3,4,3'4'-bismethylenedioxy-5,5'-dimethoxycarbonyl biphenyl]					1.8 (≈ 4.3 µM)	EC50 ([2]; Table IA): no inhibition
COC(=O)c1c2c(c(OC)c(Br)c1-c1c(Br)c(OC)c3c(c1C(=O)OC)OCO3)OCO2 [Compound 110, 6,6'-Dibromo-5,5'-dimethoxy-3,4,3'4'-bimethylenedioxy-2,2'-dimethoxycarbonyl biphenyl]					45 (≈ 78.1 µM)	EC50 ([2]; Table IA): no inhibition
COc1c(OCc2ccccc2)c(OCc2ccccc2)cc(CO)c1-c1c(CO)c(Br)c(OCc2ccccc2)c(OCc2ccccc2)c1OC [Compound 18, 2,2'-Dihydroxymethyl-3-bromo-4,4'5,5'-tetrakis(benzyloxy)-6,6'-dimethoxy biphenyl]	100 (≈ 129 µM)	> 100	> 1	no anti-HIV activity		
